Measured values as given in US5945406A, “Therapeutic compounds with pyrimidine base” (Oxford Glycosciences (UK) Ltd., priority 1995, dated 1999).

Columns and labels:
[1] = system: human HepG2 flank tumours; experiment: Efficacy in vivo: antitumour activity against subcutaneous human HepG2 flank tumours in nude mice (Example 20); set-up: species or system human tumour in nude mice; details: for Average tumour size (at sacrifice): control 10.4; for Average tumour size (at sacrifice) / Number of mice surviving after tumour innoculation, day 17 / Number of mice surviving after tumour innoculation, day 25 / Number of mice surviving after tumour innoculation, day 30 / appearance of treated animals / rate of disease progression in treated animals / survival time of treated mice over untreated animals / toxic side effects to the animals: 1300 mg/kg; for Number of mice surviving after tumour innoculation, day 0: day 0 after tumour inoculation; for Number of mice surviving after tumour innoculation, day 17: day 17 after tumour inoculation; for Number of mice surviving after tumour innoculation, day 25: day 25 after tumour inoculation; for Number of mice surviving after tumour innoculation, day 30: day 30 after tumour inoculation
Experimental: Nude mice were inoculated with subcutaneous human HepG2 flank tumours to determine the antitumour activity of Compound 1 in vivo. After allowing the tumours to develop for the first seven days, we attempted to prevent tumour progression by seven ip treatments every 48 hours at doses of 1300 mg/kg.

nude mice [2] = details: mouse, in vivo, ip
Experimental: The toxicity of Compound 1 (as described in Example 1) relative to 5-FU was determined in nude mice. Clinical grade 5-FU was used to provide a point of comparison with other toxicity studies in the literature. Animals were injected six times ip, in groups of 5, every 48 hours, with various doses of 5-FU or Compound 1.

nude mice [3] = details: single bolus toxicity; NCI data base; cited from earlier work
[4] = seven ip treatments every 48 hours

| Molecule | Average tumour size (at sacrifice) [1, 4] | Number of mice surviving after tumour innoculation, day 0 [1] [mice] | Number of mice surviving after tumour innoculation, day 17 [1, 4] [mice] | Number of mice surviving after tumour innoculation, day 25 [1, 4] [mice] | Number of mice surviving after tumour innoculation, day 30 [1, 4] [mice] | appearance of treated animals [1, 4] | rate of disease progression in treated animals [1, 4] | survival time of treated mice over untreated animals [1, 4] | toxic side effects to the animals [1, 4] | appearance of treated animals ([1]; in vivo, ip) | toxic side effects to the animals ([1]; in vivo, ip) | MAD (maximal achievable dose) (nude mice [2]) [mg/kg] | LD10 (nude mice [3]) [mg/kg] | LD50 (nude mice [3]) [mg/kg] |
| --- | --- | --- | --- | --- | --- | --- | --- | --- | --- | --- | --- | --- | --- | --- |
| CC(=O)N[C@@H]1[C@@H](O)[C@@H](O)[C@@H](CO)O[C@H]1n1cc(F)c(=O)[nH]c1=O [Compound 10, 1-(β-D-2-Deoxy-2-N-acetylgalactopyranosyl)-5-fluorouracil] | 9 | 5 | 3 | 2 | 1 | very healthy appearance | significantly slowed the rate by which the disease progressed | increased survival time | without causing any toxic side effects | – | – | – | – | – |
| 1-β-D-Galactopyranosyl-5-fluorouracil and 1-α-D-Galactopyranosyl-5-fluorouracil [Compound 1] | 9.4 | 5 | 3 | 2 | 1 | – | significantly slowed the rate by which the disease progressed | increased survival time | – | very healthy appearance | without causing any toxic side effects | 1300 | – | – |
| 1-β-L-Galactopyranosyl-5-fluorouracil and 1 -α-L-Galactopyranosyl-5-fluorouracil [Compound 2] | 5.6 | 5 | 5 | 3 | 2 | – | significantly slowed the rate by which the disease progressed | increased survival time | – | very healthy appearance | without causing any toxic side effects | – | – | – |
| O=c1[nH]cc(F)c(=O)[nH]1 [Compound 5-FU, 5-Fluorouracil, reference compound] | 10.2 | 5 | 3 | 2 | 0 | – | – | – | – | – | – | – | 165 | 360 |
| 1-(β-L-2-Arabinopyranosyl)-5-fluorouracil and 1-(α-L-2-Arabinopyranosyl)-5-fluorouracil [Compound 6] | 6.2 | 5 | 4 | 2 | 2 | very healthy appearance | significantly slowed the rate by which the disease progressed | increased survival time | – | – | without causing any toxic side effects | – | – | – |
